US10174067B2, “Type of cytidine derivative and application thereof” (priority 2014, dated 2019)
Marks after values point to notes of the source that are not given here.

Experiments:
[1] = system: HCT-116 colon cancer xenografts; assay: Tumor growth inhibition of HCT-116 colon cancer xenografts in tumor-bearing nude mice (tumor volume, TGI %, RTV, T/C %); assay type: in vivo, Balb/c Nude mice; details: G10-G16 groups, single IP 400 mg/kg; for Tumor volume, Day 0 / Day 1 (RTV) / Tumor volume, Day 1 / Day 2 (RTV) / Tumor volume, Day 2 / Day 4 (RTV) / Tumor volume, Day 4 / Day 7 (RTV) / Tumor volume, Day 7 / Day 9 (RTV) / Tumor volume, Day 9 / Day 11 (RTV) / Tumor volume, Day 11 / Day 14 (RTV) / Tumor volume, Day 14 / Day 16 (RTV) / Tumor volume, Day 16 / Day 18 (RTV) / Tumor volume, Day 18 / Day 21 (RTV) / Tumor volume, Day 21 / Day 23 (RTV) / Tumor volume, Day 23 / Day 25 (RTV) / Tumor volume, Day 25 / Day 28 (RTV) / Tumor volume, Day 28 / Day 30 (RTV) / Tumor volume, Day 30: Mean±SEM
In short: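 Tumors in HCT-116-inoculated nude mice were sized three times weekly by diameter, with volume V=3/4π(D/2)^3. Significance set at P<0.05.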

ICR mice = assay: in vivo; details: female ICR mice; single-dose ip
In short: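 MTD, the dose without mortality, body-weight loss over 10% from Day 0 or marked adverse signs, was found by stepwise up/down single intraperitoneal dosing of female SPF ICR mice. Vehicle: ethanol:Cremophor EL:saline 5:5:90. Animals weighed daily and clinically checked twice daily for up to 14 days.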

[2] = for Weight change rate, Day 0 / Weight of mice, Day 0 / Weight change rate, Day 1 / Weight of mice, Day 1 / Weight change rate, Day 2 / Weight of mice, Day 2 / Weight change rate, Day 4 / Weight of mice, Day 4 / Weight change rate, Day 7 / Weight of mice, Day 7 / Weight change rate, Day 9 / Weight of mice, Day 9 / Weight change rate, Day 11 / Weight of mice, Day 11 / Weight change rate, Day 14 / Weight of mice, Day 14 / Weight change rate, Day 16 / Weight of mice, Day 16 / Weight change rate, Day 18 / Weight of mice, Day 18 / Weight change rate, Day 21 / Weight of mice, Day 21 / Weight change rate, Day 23 / Weight of mice, Day 23 / Weight change rate, Day 25 / Weight of mice, Day 25 / Weight change rate, Day 28 / Weight of mice, Day 28 / Weight change rate, Day 30 / Weight of mice, Day 30: G10-G16 groups, single IP 400 mg/kg; for Weight of mice, Day 0 / Weight change rate, Day 1 / Weight of mice, Day 1 / Weight change rate, Day 2 / Weight of mice, Day 2 / Weight change rate, Day 4 / Weight of mice, Day 4 / Weight change rate, Day 7 / Weight of mice, Day 7 / Weight change rate, Day 9 / Weight of mice, Day 9 / Weight change rate, Day 11 / Weight of mice, Day 11 / Weight change rate, Day 14 / Weight of mice, Day 14 / Weight change rate, Day 16 / Weight of mice, Day 16 / Weight change rate, Day 18 / Weight of mice, Day 18 / Weight change rate, Day 21 / Weight of mice, Day 21 / Weight change rate, Day 23 / Weight of mice, Day 23 / Weight change rate, Day 25 / Weight of mice, Day 25 / Weight change rate, Day 28 / Weight of mice, Day 28 / Weight change rate, Day 30 / Weight of mice, Day 30: Mean±SEM; for Day 22 Mortality: single IP dose (mg/kg); for clinical symptoms: after single IP dose, compared with model control group
In short: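 Test compounds formulated in ethanol:Cremophor EL:saline (5:5:90), vehicle alone as control, in HCT-116 subcutaneous xenografts in female Balb/c nudes (6/group, start 60–150 mm^3). Weight measured three times weekly, tumour weight at end; unpaired t-test on Mean±SEM data.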

## CCCCOC(=O)Nc1nc(=O)n(C2OC(COC(=O)COc3nc(Cl)c(Cl)cc3Cl)C(O)C2(F)F)cc1I (stereo not shown) [Compound G11]
[1]
  Day 0 (RTV): 1.00
  Tumor volume, Day 0: 71.46 ± 18.69 mm^3
  Day 1 (TGI %): 58.06%
  Day 1 (RTV): 1.00 ± 0.13
  Tumor volume, Day 1: 75.71 ± 22.24** mm^3
  Day 2 (TGI %): 58.57%
  Day 2 (RTV): 1.14 ± 0.16
  Tumor volume, Day 2: 91.91 ± 29.38** mm^3
  Day 4 (TGI %): 56.33%
  Day 4 (RTV): 1.56 ± 0.24
  Tumor volume, Day 4: 129.69 ± 43.49** mm^3
  Day 7 (TGI %): 53.56%
  Day 7 (RTV): 2.68 ± 0.29
  Tumor volume, Day 7: 200.84 ± 57.86* mm^3
  Day 9 (TGI %): 35.19%
  Day 9 (RTV): 5.21 ± 0.68
  Tumor volume, Day 9: 382.62 ± 103.38 mm^3
  Day 11 (TGI %): 49.22%
  Day 11 (RTV): 6.61 ± 0.62
  Tumor volume, Day 11: 495.68 ± 140.53* mm^3
  Day 14 (TGI %): 41.98%
  Day 14 (RTV): 12.40 ± 1.29
  Tumor volume, Day 14: 835.57 ± 194.90* mm^3
  Day 16 (TGI %): 41.43%
  Day 16 (RTV): 16.20 ± 1.72
  Tumor volume, Day 16: 1060.78 ± 231.28* mm^3
  Day 18 (TGI %): 36.63%
  Day 18 (RTV): 20.33 ± 2.96
  Tumor volume, Day 18: 1266.27 ± 242.09* mm^3
  Day 21 (TGI %): 32.98%
  Day 21 (RTV): 26.21 ± 3.72
  Tumor volume, Day 21: 1638.64 ± 312.92 mm^3
  Day 23 (TGI %): 28.91%
  Day 23 (RTV): 27.62 ± 4.39
  Tumor volume, Day 23: 1678.97 ± 300.64 mm^3
  Day 25 (TGI %): 28.29%
  Day 25 (RTV): 30.73 ± 4.91
  Tumor volume, Day 25: 1851.89 ± 322.59 mm^3
  Day 28 (TGI %): 20.94%
  Day 28 (RTV): 36.20 ± 6.28
  Tumor volume, Day 28: 2126.03 ± 345.51 mm^3
  Day 30 (TGI %): 39.43%
  Day 30 (RTV): 56.36 ± 6.99
  Tumor volume, Day 30: 1699.56 ± 350.73 mm^3
ICR mice
  dose that could be tolerated (maximum tolerated dose, MTD): 400 mg/kg
[2]
  Weight change rate, Day 0: 0.00%
  Weight of mice, Day 0: 20.48 ± 0.27 g
  Weight change rate, Day 1: −5.41 ± 1.27 %
  Weight of mice, Day 1: 19.38 ± 0.43 g
  Weight change rate, Day 2: −6.03 ± 0.57 %
  Weight of mice, Day 2: 19.25 ± 0.31 g
  Weight change rate, Day 4: −2.00 ± 0.76%
  Weight of mice, Day 4: 20.07 ± 0.18 g
  Weight change rate, Day 7: −3.58 ± 1.49%
  Weight of mice, Day 7: 19.73 ± 0.17 g
  Weight change rate, Day 9: −0.18 ± 1.13%
  Weight of mice, Day 9: 20.43 ± 0.14 g
  Weight change rate, Day 11: 1.05 ± 1.44%
  Weight of mice, Day 11: 20.68 ± 0.20 g
  Weight change rate, Day 14: −1.81 ± 2.2%
  Weight of mice, Day 14: 20.10 ± 0.40 g
  Weight change rate, Day 16: 0.01 ± 2.83%
  Weight of mice, Day 16: 20.47 ± 0.49 g
  Weight change rate, Day 18: 1.66 ± 3.62%
  Weight of mice, Day 18: 20.80 ± 0.65 g
  Weight change rate, Day 21: −0.53 ± 3.44%
  Weight of mice, Day 21: 20.35 ± 0.59 g
  Day 22 Mortality: 0%
  Weight change rate, Day 23: −1.07 ± 3.55%
  Weight of mice, Day 23: 20.23 ± 0.57 g
  Weight change rate, Day 25: −0.06 ± 3.97%
  Weight of mice, Day 25: 20.43 ± 0.63 g
  Weight change rate, Day 28: −1.11 ± 3.89%
  Weight of mice, Day 28: 20.22 ± 0.61 g
  Weight change rate, Day 30: 3.01 ± 7.70%
  Weight of mice, Day 30: 21.00 ± 1.02 g
  clinical symptoms: no significant differences in clinical symptoms

## CCCCOC(=O)Nc1nc(=O)n(C2OC(COC(=O)COc3nc(Cl)c(Cl)cc3Cl)C(O)C2(F)F)cc1-c1cn(Cc2ccccc2)nn1 (stereo not shown) [Compound G15]
[1]
  Day 0 (RTV): 1.00
  Tumor volume, Day 0: 80.27 ± 13.25 mm^3
  Day 1 (TGI %): 35.29%
  Day 1 (RTV): 1.44 ± 0.12
  Tumor volume, Day 1: 116.82 ± 21* mm^3
  Day 2 (TGI %): 44.25%
  Day 2 (RTV): 1.50 ± 0.15
  Tumor volume, Day 2: 123.70 ± 25.72* mm^3
  Day 4 (TGI %): 67.87%
  Day 4 (RTV): 1.11 ± 0.17
  Tumor volume, Day 4: 95.41 ± 22.57** mm^3
  Day 7 (TGI %): 86.92%
  Day 7 (RTV): 0.88 ± 0.12
  Tumor volume, Day 7: 56.58 ± 8.87** mm^3
  Day 9 (TGI %): 91.92%
  Day 9 (RTV): 0.77 ± 0.23
  Tumor volume, Day 9: 47.71 ± 0.00** mm^3
  Day 11 (TGI %): 92.19%
  Day 11 (RTV): 1.19 ± 0.19
  Tumor volume, Day 11: 76.28 ± 10.83** mm^3
  Day 14 (TGI %): 86.10%
  Day 14 (RTV): 3.15 ± 0.61
  Tumor volume, Day 14: 200.24 ± 20.65** mm^3
  Day 16 (TGI %): 77.07%
  Day 16 (RTV): 6.58 ± 1.42
  Tumor volume, Day 16: 415.31 ± 33.61** mm^3
  Day 18 (TGI %): 71.73%
  Day 18 (RTV): 8.97 ± 2.01
  Tumor volume, Day 18: 564.86 ± 41.27** mm^3
  Day 21 (TGI %): 60.58%
  Day 21 (RTV): 15.35 ± 3.61
  Tumor volume, Day 21: 963.72 ± 58.94 mm^3
  Day 23 (TGI %): 59.19%
  Day 23 (RTV): 15.35 ± 3.61
  Tumor volume, Day 23: 963.72 ± 58.94 mm^3
  Day 25 (TGI %): 57.93%
  Day 25 (RTV): 17.32 ± 4.11
  Tumor volume, Day 25: 1086.50 ± 63.85 mm^3
  Day 28 (TGI %): 49.34%
  Day 28 (RTV): 21.75 ± 5.25
  Tumor volume, Day 28: 1362.50 ± 74.25 mm^3
  Day 30 (TGI %): 37.03%
  Day 30 (RTV): 28.66 ± 8.38
  Tumor volume, Day 30: 1767.15 ± 0.00 mm^3
ICR mice
  dose that could be tolerated (maximum tolerated dose, MTD): 400 mg/kg
[2]
  Weight change rate, Day 0: 0.00%
  Weight of mice, Day 0: 20.15 ± 0.29 g
  Weight change rate, Day 1: −1.20 ± 1.02%
  Weight of mice, Day 1: 19.92 ± 0.44 g
  Weight change rate, Day 2: −11.24 ± 1.52 %
  Weight of mice, Day 2: 17.9 ± 0.52 g
  Weight change rate, Day 4: −18.30 ± 3.09 %
  Weight of mice, Day 4: 16.48 ± 0.77 g
  Weight change rate, Day 7: −1.96 ± 0.54%
  Weight of mice, Day 7: 20.10 ± 0.60 g
  Weight change rate, Day 9: 2.49 ± 2.01%
  Weight of mice, Day 9: 21.00 ± 0.10 g
  Weight change rate, Day 11: 4.46 ± 3.04%
  Weight of mice, Day 11: 21.40 ± 0.10 g
  Weight change rate, Day 14: 7.83 ± 1.17 %
  Weight of mice, Day 14: 22.1 ± 0.30 g
  Weight change rate, Day 16: 11.00 ± 1.00 %
  Weight of mice, Day 16: 22.75 ± 0.35 g
  Weight change rate, Day 18: 13.18 ± 0.32 %
  Weight of mice, Day 18: 23.20 ± 0.50 g
  Weight change rate, Day 21: 9.29 ± 0.71 %
  Weight of mice, Day 21: 22.40 ± 0.40 g
  Day 22 Mortality: 67%
  Weight change rate, Day 23: 8.06 ± 0.44 %
  Weight of mice, Day 23: 22.15 ± 0.45 g
  Weight change rate, Day 25: 9.26 ± 0.26%
  Weight of mice, Day 25: 22.4 ± 0.60 g
  Weight change rate, Day 28: 7.08 ± 0.42%
  Weight of mice, Day 28: 21.95 ± 0.45 g
  Weight change rate, Day 30: 9.20 ± 2.70%
  Weight of mice, Day 30: 22.40 ± 1.10 g
  clinical symptoms: no significant differences in clinical symptoms
